Molecular target: CD73 (Homo sapiens (Human), UniProt P21589)
Assay: Biochemical Assay (CD73 inhibition, AMP hydrolysis, Malachite Green readout)
Conditions: CD73 0.3208 nM, AMP 15 μM, Tris-HCl pH 7.4, Malachite Green absorbance
Method: Example A1: Biochemical Assay
Assay Reaction Conditions
• Assay Volume: 70 μl • Reaction Volume: 50 μl • CD73: 0.3208 nM • AMP: 15 μM • Assay Buffer: 2 5 mM Tris-HCL, pH 7.4, 0.01% Brij-35, 0.01% BSA, 5 mM MgCl2 Assay Procedure:
Made dose titration of testing compounds in assay buffer, 10 points ½ log titrations in duplicates starting at 100 μM.
Added 25 μl of CD73 to each well for a final concentration of 320 pM.
Incubated at RT for 15 min.
Added 25 μl of AMP to each well for a final concentration of 15 μM.
Incubated at RT for 10 min.
Added 10 μl of Malachite Green Reagent A, incubate at RT for 10 min.
Added 10 μl of Malachite Green Reagent B, incubate at RT for 45 min. […]
The ability of the compounds disclosed herein to inhibit CD73 activity was quantified and the respective IC50 values were determined. Table 1 provides the biochemical IC50 values of compounds disclosed herein.

Sequence of CD73 (P21589 27-574): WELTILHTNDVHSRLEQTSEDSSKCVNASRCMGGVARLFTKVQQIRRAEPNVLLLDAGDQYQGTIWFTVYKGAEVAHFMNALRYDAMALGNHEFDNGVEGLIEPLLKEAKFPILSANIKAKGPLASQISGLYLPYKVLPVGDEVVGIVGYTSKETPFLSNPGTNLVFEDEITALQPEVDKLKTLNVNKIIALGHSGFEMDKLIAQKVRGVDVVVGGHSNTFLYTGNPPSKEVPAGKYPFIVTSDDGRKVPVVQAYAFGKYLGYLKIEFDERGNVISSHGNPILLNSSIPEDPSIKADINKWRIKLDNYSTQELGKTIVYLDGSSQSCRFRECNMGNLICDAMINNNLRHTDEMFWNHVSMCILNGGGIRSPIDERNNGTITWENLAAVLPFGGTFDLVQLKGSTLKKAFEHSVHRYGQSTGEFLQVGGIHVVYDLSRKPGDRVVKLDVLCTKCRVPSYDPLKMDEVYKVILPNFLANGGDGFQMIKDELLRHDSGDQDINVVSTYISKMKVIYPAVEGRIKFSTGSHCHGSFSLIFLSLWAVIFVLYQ

Structure (SMILES)	IC50
O=C(CP(=O)(O)O)OC[C@H]1O[C@@H](n2ncc3c(NCc4ccccc4Cl)nc(Cl)nc32)[C@H](O)[C@@H]1O [Example 1, (2-(((2R,3S,4R,5R)-5-(6-Chloro-4-((2-chlorobenzyl)amino)-1H-pyrazolo[3,4-d]pyrimidin-1-yl)-3,4-dihydroxytetrahydrofuran-2-yl)methoxy)-2-oxoethyl)phosphonic acid]	≤ 500 nM
O=C(CP(=O)(O)O)NC[C@H]1O[C@@H](n2ncc3c(NCc4ccccc4Cl)nc(Cl)nc32)[C@H](O)[C@@H]1O [Example 2, (2-((((2R,3S,4R,5R)-5-(6-Chloro-4-((2-chlorobenzyl)amino)-1H-pyrazolo[3,4-d]pyrimidin-1-yl)-3,4-dihydroxytetrahydrofuran-2-yl)methyl)amino)-2-oxoethyl)phosphonic acid]	> 1000 nM
O=P(O)(O)CS(=O)(=O)NC[C@H]1O[C@@H](n2ncc3c(NCc4ccccc4Cl)nc(Cl)nc32)[C@H](O)[C@@H]1O [Example 3, ((N-(((2R,3S,4R,5R)-5-(6-Chloro-4-((2-chlorobenzyl)amino)-1H-pyrazolo[3,4-d]pyrimidin-1-yl)-3,4-dihydroxytetrahydrofuran-2-yl)methyl)sulfamoyl)methyl)phosphonic acid]	≤ 500 nM
CN(c1nc(Cl)nc2c1cnn2[C@@H]1O[C@H](CCP(=O)(O)O)[C@@H](O)[C@H]1O)[C@H]1CCc2ccccc21 [Example 4, (2-((2R,3S,4R,5R)-5-(6-Chloro-4-(((S)-2,3-dihydro-1H-inden-1-yl)(methyl)amino)-1H-pyrazolo[3,4-d]pyrimidin-1-yl)-3,4-dihydroxytetrahydrofuran-2-yl)ethyl)phosphonic acid]	> 1000 nM
CN(Cc1ccccc1)c1nc(Cl)nc2c1cnn2[C@@H]1O[C@H](COCCP(=O)(O)O)[C@@H](O)[C@H]1O [Example 5, (2-(((2R,3S,4R,5R)-5-(4-(Benzyl(methyl)amino)-6-chloro-1H-pyrazolo[3,4-d]pyrimidin-1-yl)-3,4-dihydroxytetrahydrofuran-2-yl)methoxy)ethyl)phosphonic acid]	> 1000 nM
CN(Cc1ccccc1)c1nc(Cl)nc2c1cnn2[C@H]1O[C@H](COCCP(=O)(O)O)[C@@H](O)[C@H]1O [Example 6, (2-(((2R,3S,4R,5S)-5-(4-(Benzyl(methyl)amino)-6-chloro-1H-pyrazolo[3,4-d]pyrimidin-1-yl)-3,4-dihydroxytetrahydrofuran-2-yl)methoxy)ethyl)phosphonic acid]	> 1000 nM
CN(Cc1ccccc1)c1nc(Cl)nc2c1cnn2[C@@H]1O[C@H](COCP(=O)(O)O)[C@@H](O)[C@H]1O [Example 7, ((((2R,3S,4R,5R)-5-(4-(Benzyl(methyl)amino)-6-chloro-1H-pyrazolo[3,4-d]pyrimidin-1-yl)-3,4-dihydroxytetrahydrofuran-2-yl)methoxy)methyl)phosphonic acid]	≤ 500 nM
CN(c1nc(Cl)nc2c1cnn2[C@@H]1O[C@H](COC(=O)CP(=O)(O)O)[C@@H](O)[C@H]1O)[C@H]1CCc2ccccc21 [Example 8, (2-(((2R,3S,4R,5R)-5-(6-Chloro-4-(((S)-2,3-dihydro-1H-inden-1-yl)(methyl)amino)-1H-pyrazolo[3,4-d]pyrimidin-1-yl)-3,4-dihydroxytetrahydrofuran-2-yl)methoxy)-2-oxoethyl)phosphonic acid]	500 to 1000 nM
CN(C[C@H]1O[C@@H](n2ncc3c(NCc4ccccc4Cl)nc(Cl)nc32)[C@H](O)[C@@H]1O)C(=O)CP(=O)(O)O [Example 9, (2-((((2R,3S,4R,5R)-5-(6-chloro-4-((2-chlorobenzyl)amino)-1H-pyrazolo[3,4-d]pyrimidin-1-yl)-3,4-dihydroxytetrahydrofuran-2-yl)methyl)(methyl)amino)-2-oxoethyl)phosphonic acid]	≤ 500 nM
O=P(O)(O)COC[C@H]1O[C@@H](n2ncc3c(NCc4ccccc4Cl)nc(Cl)nc32)[C@H](O)[C@@H]1O [Example 10, ((((2R,3S,4R,5R)-5-(6-chloro-4-((2-chlorobenzyl)amino)-1H-pyrazolo[3,4-d]pyrimidin-1-yl)-3,4-dihydroxytetrahydrofuran-2-yl)methoxy)methyl)phosphonic acid]	≤ 500 nM
CN(c1nc(Cl)nc2c1nnn2[C@@H]1O[C@H](COC(=O)CP(=O)(O)O)[C@@H](O)[C@H]1O)[C@H]1CCc2ccccc21 [Example 11, (2-(((2R,3S,4R,5R)-5-(5-chloro-7-(((S)-2,3-dihydro-1H-inden-1-yl)(methyl)amino)-3H-[1,2,3]triazolo[4,5-d]pyrimidin-3-yl)-3,4-dihydroxytetrahydrofuran-2-yl)methoxy)-2-oxoethyl)phosphonic acid]	> 1000 nM
O=P(O)(O)COC[C@H]1O[C@@H](n2nnc3c(N[C@H]4CCc5ccccc54)nc(Cl)nc32)[C@H](O)[C@@H]1O [Example 12, ((((2R,3S,4R,5R)-5-(5-chloro-7-(((S)-2,3-dihydro-1H-inden-1-yl)amino)-3H-[1,2,3]triazolo[4,5-d]pyrimidin-3-yl)-3,4-dihydroxytetrahydrofuran-2-yl)methoxy)methyl)phosphonic acid]	≤ 500 nM
O=P(O)(O)CSC[C@H]1O[C@@H](n2ncc3c(NCc4ccccc4Cl)nc(Cl)nc32)[C@H](O)[C@@H]1O [Example 13, (((((2S,3S,4R,5R)-5-(6-Chloro-4-((2-chlorobenzyl)amino)-1H-pyrazolo[3,4-d]pyrimidin-1-yl)-3,4-dihydroxytetrahydrofuran-2-yl)methyl)thio)methyl)phosphonic acid]	≤ 500 nM
O=P(O)(O)CS(=O)(=O)C[C@H]1O[C@@H](n2ncc3c(NCc4ccccc4Cl)nc(Cl)nc32)[C@H](O)[C@@H]1O [Example 14, (((((2S,3S,4R,5R)-5-(6-Chloro-4-((2-chlorobenzyl)amino)-1H-pyrazolo[3,4-d]pyrimidin-1-yl)-3,4-dihydroxytetrahydrofuran-2-yl)methyl)sulfonyl)methyl)phosphonic acid]	≤ 500 nM
O=P(O)(O)COC[C@H]1O[C@@H](n2ccc3c(NCC4CC4)nc(Cl)nc32)[C@H](O)[C@@H]1O [Example 15, ((((2R,3S,4R,5R)-5-(2-Chloro-4-((cyclopropylmethyl)amino)-7H-pyrrolo[2,3-d]pyrimidin-7-yl)-3,4-dihydroxytetrahydrofuran-2-yl)methoxy)methyl)phosphonic acid]	≤ 500 nM
O=P(O)(O)COC[C@H]1O[C@@H](n2nnc3c(NCC4CC4)nc(Cl)nc32)[C@H](O)[C@@H]1O [Example 16, ((((2R,3S,4R,5R)-5-(5-Chloro-7-((cyclopropylmethyl)amino)-3H-[1,2,3]triazolo[4,5-d]pyrimidin-3-yl)-3,4-dihydroxytetrahydrofuran-2-yl)methoxy)methyl)phosphonic acid]	≤ 500 nM
O=P(O)(O)COC[C@H]1O[C@@H](n2ncc3c(NCc4ccccc4Cl)nc(CO)nc32)[C@H](O)[C@@H]1O [Example 17, ((((2R,3S,4R,5R)-5-(4-((2-Chlorobenzyl)amino)-6-(hydroxymethyl)-1H-pyrazolo[3,4-d]pyrimidin-1-yl)-3,4-dihydroxytetrahydrofuran-2-yl)methoxy)methyl)phosphonic acid]	≤ 500 nM
N#Cc1nc(NCc2cccc(Cl)c2)c2cnn([C@@H]3O[C@H](COCP(=O)(O)O)[C@@H](O)[C@H]3O)c2n1 [Example 18, ((((2R,3S,4R,5R)-5-(4-((3-Chlorobenzyl)amino)-6-cyano-1H-pyrazolo[3,4-d]pyrimidin-1-yl)-3,4-dihydroxytetrahydrofuran-2-yl)methoxy)methyl)phosphonic acid]	≤ 500 nM
C[C@@]1(O)[C@@H](COCP(=O)(O)O)O[C@@H](n2ncc3c(NCc4ccccc4Cl)nc(Cl)nc32)[C@@H]1O [Example 19, ((((2R,3S,4R,5R)-5-(6-Chloro-4-((2-chlorobenzyl)amino)-1H-pyrazolo[3,4-d]pyrimidin-1-yl)-3,4-dihydroxy-3-methyltetrahydrofuran-2-yl)methoxy)methyl)phosphonic acid]	500 to 1000 nM
CC(C)CN(C[C@H]1O[C@@H](n2ncc3c(NCc4ccccc4Cl)nc(Cl)nc32)[C@H](O)[C@@H]1O)C(=O)CP(=O)(O)O [Example 20, (2-((((2R,3S,4R,5R)-5-(6-Chloro-4-((2-chlorobenzyl)amino)-1H-pyrazolo[3,4-d]pyrimidin-1-yl)-3,4-dihydroxytetrahydrofuran-2-yl)methyl)(isobutyl)amino)-2-oxoethyl)phosphonic acid]	> 1000 nM
O=P(O)(O)COC[C@H]1O[C@@H](n2ncc3c(N[C@H]4CCc5ccccc54)nc(Cl)nc32)[C@H](O)[C@@H]1O [Example 25, ((((2R,3S,4R,5R)-5-(6-chloro-4-(((S)-2,3-dihydro-1H-inden-1-yl)amino)-1H-pyrazolo[3,4-d]pyrimidin-1-yl)-3,4-dihydroxytetrahydrofuran-2-yl)methoxy)methyl)phosphonic acid]	≤ 500 nM
CN(c1nc(Cl)nc2c1nnn2[C@@H]1O[C@H](COCP(=O)(O)O)[C@@H](O)[C@H]1O)[C@H]1CCc2ccccc21 [Example 26, ((((2R,3S,4R,5R)-5-(5-chloro-7-(((S)-2,3-dihydro-1H-inden-1-yl)(methyl)amino)-3H-[1,2,3]triazolo[4,5-d]pyrimidin-3-yl)-3,4-dihydroxytetrahydrofuran-2-yl)methoxy)methyl)phosphonic acid]	500 to 1000 nM
O=P(O)(O)COC[C@H]1O[C@@H](n2ncc3c(NCc4cccc(Cl)c4)nc(Cl)nc32)[C@H](O)[C@@H]1O [Example 27, ((((2R,3S,4R,5R)-5-(6-chloro-4-((3-chlorobenzyl)amino)-1H-pyrazolo[3,4-d]pyrimidin-1-yl)-3,4-dihydroxytetrahydrofuran-2-yl)methoxy)methyl)phosphonic acid]	≤ 500 nM

— patent publication US11377469B2, “CD73 inhibitors” (ORIC Pharmaceuticals, Inc., priority 2017, dated 2022)
